Experimental data taken from patent US11820792B2, “Cancer treatment” (Imperial College Innovations Limited, priority 2017, dated 2023).

Legend:
[1] = test system: recurrent human malignant glioma; details: cited from earlier work
[2] = test system: UW228 cells; assay: TNFα and cisplatin combination, sulphorodamine B viability; assay type: cell-based, human; details: stably transduced UW228, 1 μM and 5 μM cisplatin
Protocol: Cell viability was measured at different time points using sulphorodamine B assay. Stably transduced UW228 were treated with 1 μM and 5 μM cisplatin chemotherapy 48 hrs after seeding the cells. Data are represented as mean±SEM.***P≤0.001.

[3] = test system: DIPG; details: 2 children, both died after treatment; cited from earlier work
[4] = systemic administration, clinical trials; cited from earlier work

IL-4: Interleukin-4 protein injected intratumorally by convection enhanced delivery
neurotoxicity to normal brain ([1]; histology, any patient): No histological evidence of neurotoxicity
patients showing glioma necrosis ([1]; intratumoral, CED): Six of nine
disease free time after the procedure ([1]; one patient): > 18 months
systemic toxicity ([1]; treated patients): no drug-related systemic toxicity

N.N.[Cl][Pt][Cl] [cisplatin]
effect of combination on tmTNFα cytokine gene therapy (cell viability) [2]: increases

CC[C@@]1(O)C(=O)OCc2c1cc1n(c2=O)Cc2cc3c(CN(C)C)c(O)ccc3nc2-1 [topotecan]
tumour response [3]: reduction in tumour size

rhIL-15: Recombinant human IL-15 cytokine given systemically in clinical trials
plasma half-life [4]: < 1 h
